Laboratory results reported in patent US8192962B2, “Processes for detecting toxic substances” (Daikin Industries, Ltd., priority 2001, dated 2012).

System: Detoxification protein genes
Assay: DNA chip mRNA expression in yeast, detoxification protein genes (Table 8)
Type: cell-based, Saccharomyces cerevisiae S288C
Outline: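 In this screen, yeast in logarithmic growth are challenged for two hours with a toxic substance at a non-lethal inhibitory concentration. Their mRNA, converted to Cy3- or Cy5-labeled cDNA, hybridizes at 65° C. to a chip spanning every yeast gene, and expression is expressed as a ratio to untreated cells.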

O=[N+]([O-])c1cc[n+]([O-])c2ccccc12 [(5), 4-nitroquinolin-N-oxide]
The level of expressed mRNA in the presence of chemical substance/The level of expressed mRNA in the absence of chemical substance (yeast gene YBL064C): 0.8 | The level of expressed mRNA in the presence of chemical substance/The level of expressed mRNA in the absence of chemical substance (yeast gene YBR008C): 0.9 | The level of expressed mRNA in the presence of chemical substance/The level of expressed mRNA in the absence of chemical substance (yeast gene YBR145W): 1.1 | The level of expressed mRNA in the presence of chemical substance/The level of expressed mRNA in the absence of chemical substance (yeast gene YBR244W): 1.7 | The level of expressed mRNA in the presence of chemical substance/The level of expressed mRNA in the absence of chemical substance (yeast gene YBR293W): 0.8 | The level of expressed mRNA in the presence of chemical substance/The level of expressed mRNA in the absence of chemical substance (yeast gene YCL035C): 1.5 | The level of expressed mRNA in the presence of chemical substance/The level of expressed mRNA in the absence of chemical substance (yeast gene YCL069W): 0.9 | The level of expressed mRNA in the presence of chemical substance/The level of expressed mRNA in the absence of chemical substance (yeast gene YCR083W): 1.6 | The level of expressed mRNA in the presence of chemical substance/The level of expressed mRNA in the absence of chemical substance (yeast gene YDL100C): 1.0 | The level of expressed mRNA in the presence of chemical substance/The level of expressed mRNA in the absence of chemical substance (yeast gene YDL168W): 1.2 | The level of expressed mRNA in the presence of chemical substance/The level of expressed mRNA in the absence of chemical substance (yeast gene YDR256C): 1.2 | The level of expressed mRNA in the presence of chemical substance/The level of expressed mRNA in the absence of chemical substance (yeast gene YDR453C): 0.7 | The level of expressed mRNA in the presence of chemical substance/The level of expressed mRNA in the absence of chemical substance (yeast gene YDR513W): 0.9 | The level of expressed mRNA in the presence of chemical substance/The level of expressed mRNA in the absence of chemical substance (yeast gene YDR538W): 1.0 | The level of expressed mRNA in the presence of chemical substance/The level of expressed mRNA in the absence of chemical substance (yeast gene YEL027W): 1.0 | The level of expressed mRNA in the presence of chemical substance/The level of expressed mRNA in the absence of chemical substance (yeast gene YEL065W): 1.4 | The level of expressed mRNA in the presence of chemical substance/The level of expressed mRNA in the absence of chemical substance (yeast gene YER185W): 1.6 | The level of expressed mRNA in the presence of chemical substance/The level of expressed mRNA in the absence of chemical substance (yeast gene YFL050C): 1.0 | The level of expressed mRNA in the presence of chemical substance/The level of expressed mRNA in the absence of chemical substance (yeast gene YGL013C): 1.1 | The level of expressed mRNA in the presence of chemical substance/The level of expressed mRNA in the absence of chemical substance (yeast gene YGL254W): 1.1 | The level of expressed mRNA in the presence of chemical substance/The level of expressed mRNA in the absence of chemical substance (yeast gene YGR088W): 1.0 | The level of expressed mRNA in the presence of chemical substance/The level of expressed mRNA in the absence of chemical substance (yeast gene YGR138C): 0.8 | The level of expressed mRNA in the presence of chemical substance/The level of expressed mRNA in the absence of chemical substance (yeast gene YGR197C): 0.7 | The level of expressed mRNA in the presence of chemical substance/The level of expressed mRNA in the absence of chemical substance (yeast gene YGR209C): 1.9 | The level of expressed mRNA in the presence of chemical substance/The level of expressed mRNA in the absence of chemical substance (yeast gene YGR224W): 1.4 | The level of expressed mRNA in the presence of chemical substance/The level of expressed mRNA in the absence of chemical substance (yeast gene YHL040C): 1.1 | The level of expressed mRNA in the presence of chemical substance/The level of expressed mRNA in the absence of chemical substance (yeast gene YHL047C): 1.2 | The level of expressed mRNA in the presence of chemical substance/The level of expressed mRNA in the absence of chemical substance (yeast gene YHR008C): 0.6 | The level of expressed mRNA in the presence of chemical substance/The level of expressed mRNA in the absence of chemical substance (yeast gene YHR048W): 1.0 | The level of expressed mRNA in the presence of chemical substance/The level of expressed mRNA in the absence of chemical substance (yeast gene YHR053C): 2.9 | The level of expressed mRNA in the presence of chemical substance/The level of expressed mRNA in the absence of chemical substance (yeast gene YHR055C): 2.7 | The level of expressed mRNA in the presence of chemical substance/The level of expressed mRNA in the absence of chemical substance (yeast gene YIR002C): 1.2 | The level of expressed mRNA in the presence of chemical substance/The level of expressed mRNA in the absence of chemical substance (yeast gene YIR038C): 0.7 | The level of expressed mRNA in the presence of chemical substance/The level of expressed mRNA in the absence of chemical substance (yeast gene YJL101C): 1.4 | The level of expressed mRNA in the presence of chemical substance/The level of expressed mRNA in the absence of chemical substance (yeast gene YJR104C): 1.5 | The level of expressed mRNA in the presence of chemical substance/The level of expressed mRNA in the absence of chemical substance (yeast gene YKL026C): 1.0 | The level of expressed mRNA in the presence of chemical substance/The level of expressed mRNA in the absence of chemical substance (yeast gene YKL064W): 1.2 | The level of expressed mRNA in the presence of chemical substance/The level of expressed mRNA in the absence of chemical substance (yeast gene YKR066C): 1.0 | The level of expressed mRNA in the presence of chemical substance/The level of expressed mRNA in the absence of chemical substance (yeast gene YKR105C): 1.0 | The level of expressed mRNA in the presence of chemical substance/The level of expressed mRNA in the absence of chemical substance (yeast gene YKR106W): 1.2 | The level of expressed mRNA in the presence of chemical substance/The level of expressed mRNA in the absence of chemical substance (yeast gene YLL028W): 0.9 | The level of expressed mRNA in the presence of chemical substance/The level of expressed mRNA in the absence of chemical substance (yeast gene YLL057C): 1.1 | The level of expressed mRNA in the presence of chemical substance/The level of expressed mRNA in the absence of chemical substance (yeast gene YLL060C): 0.9 | The level of expressed mRNA in the presence of chemical substance/The level of expressed mRNA in the absence of chemical substance (yeast gene YLR043C): 2.0 | The level of expressed mRNA in the presence of chemical substance/The level of expressed mRNA in the absence of chemical substance (yeast gene YLR046C): 1.0 | The level of expressed mRNA in the presence of chemical substance/The level of expressed mRNA in the absence of chemical substance (yeast gene YML028W): 1.6 | The level of expressed mRNA in the presence of chemical substance/The level of expressed mRNA in the absence of chemical substance (yeast gene YML116W): 1.2 | The level of expressed mRNA in the presence of chemical substance/The level of expressed mRNA in the absence of chemical substance (yeast gene YMR015C): 1.7 | The level of expressed mRNA in the presence of chemical substance/The level of expressed mRNA in the absence of chemical substance (yeast gene YMR038C): 1.5 | The level of expressed mRNA in the presence of chemical substance/The level of expressed mRNA in the absence of chemical substance (yeast gene YNL239W): 1.2 | The level of expressed mRNA in the presence of chemical substance/The level of expressed mRNA in the absence of chemical substance (yeast gene YNL241C): 0.8 | The level of expressed mRNA in the presence of chemical substance/The level of expressed mRNA in the absence of chemical substance (yeast gene YNL259C): 1.1 | The level of expressed mRNA in the presence of chemical substance/The level of expressed mRNA in the absence of chemical substance (yeast gene YOL158C): 1.2 | The level of expressed mRNA in the presence of chemical substance/The level of expressed mRNA in the absence of chemical substance (yeast gene YOR031W): 1.4 | The level of expressed mRNA in the presence of chemical substance/The level of expressed mRNA in the absence of chemical substance (yeast gene YOR153W): 1.0 | The level of expressed mRNA in the presence of chemical substance/The level of expressed mRNA in the absence of chemical substance (yeast gene YOR247W): 0.6 | The level of expressed mRNA in the presence of chemical substance/The level of expressed mRNA in the absence of chemical substance (yeast gene YOR251C): 0.8 | The level of expressed mRNA in the presence of chemical substance/The level of expressed mRNA in the absence of chemical substance (yeast gene YOR273C): 1.1 | The level of expressed mRNA in the presence of chemical substance/The level of expressed mRNA in the absence of chemical substance (yeast gene YPL163C): 0.6 | The level of expressed mRNA in the presence of chemical substance/The level of expressed mRNA in the absence of chemical substance (yeast gene YPR200C): 1.6
